From US11560371B2, “Cereblon binding compounds, compositions thereof, and methods of treatment therewith” (Celgene Corporation, priority 2020, dated 2023)

Biological target: T1, AR (Homo sapiens, UniProt P10275)
T1 construct: endogenous in cells; host or cells: VCaP cells
T1 sequence (P10275 1-920): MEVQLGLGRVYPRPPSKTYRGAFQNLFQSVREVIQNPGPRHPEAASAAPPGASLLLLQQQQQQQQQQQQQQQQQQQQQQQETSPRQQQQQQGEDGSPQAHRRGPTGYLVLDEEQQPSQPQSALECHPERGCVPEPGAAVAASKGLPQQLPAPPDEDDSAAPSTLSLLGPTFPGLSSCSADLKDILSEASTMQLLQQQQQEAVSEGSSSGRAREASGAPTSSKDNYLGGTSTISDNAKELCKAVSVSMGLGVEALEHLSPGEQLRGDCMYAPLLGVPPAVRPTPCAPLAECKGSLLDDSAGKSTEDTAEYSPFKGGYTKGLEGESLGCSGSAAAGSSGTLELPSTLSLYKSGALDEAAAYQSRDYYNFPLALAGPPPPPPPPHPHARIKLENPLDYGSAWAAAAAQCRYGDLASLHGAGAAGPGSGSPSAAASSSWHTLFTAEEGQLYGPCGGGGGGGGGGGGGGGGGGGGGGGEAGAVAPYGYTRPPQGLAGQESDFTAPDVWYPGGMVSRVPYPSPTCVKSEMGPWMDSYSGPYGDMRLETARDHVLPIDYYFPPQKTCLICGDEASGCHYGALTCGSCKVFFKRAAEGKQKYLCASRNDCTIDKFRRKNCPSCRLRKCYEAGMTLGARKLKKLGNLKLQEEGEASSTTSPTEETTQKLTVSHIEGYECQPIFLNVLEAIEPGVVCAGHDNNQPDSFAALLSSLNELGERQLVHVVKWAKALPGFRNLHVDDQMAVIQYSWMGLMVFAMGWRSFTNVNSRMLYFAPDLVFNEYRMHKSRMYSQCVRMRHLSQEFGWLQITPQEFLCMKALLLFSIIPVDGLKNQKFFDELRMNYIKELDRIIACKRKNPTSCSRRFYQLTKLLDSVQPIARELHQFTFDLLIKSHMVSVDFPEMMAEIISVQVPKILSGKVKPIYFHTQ
Assay: VCAP AR Degradation Assay
Type: cell-based
Settings: VCaP cells, 24 h, AR ELISA; for DC50: concentration of compound when AR level = 50% of DMSO control (50% AR degradation); for Y: lowest measured AR level normalized to DMSO control (AR degradation efficiency)
Protocol: VCAP AR Degradation Assay. Test compounds were pre-dispensed into a Corning CellBind 96-well clear bottom plate (Cat #3300) using an acoustic dispenser to make a 10-point concentration series at 1:3 dilution for each compound. The final top concentration of each compound was 5 μM. DMSO at a final concentration of 0.1% was used as a control. VCaP cells cultured in DMEM with 8% fetal bovine serum (FBS) were seeded at 50K cells per well in a 200 μL volume into the compound plate and incubated at 37° C. in a CO2 incubator for 24 h. The medium was carefully removed from the cells and the plate was placed on ice. […] ice-cold 1× cell lysis buffer from Cell Signaling Technologies (Cat #9803) was added to each well of the cells and the plate was incubated at 4° C. on a shaker for 1 h. Fifteen μL of cell lysate was used for AR ELISA detection using a PathScan Total Sandwich AR ELISA kit (Cell Signaling Technology, Cat #12580). AR levels in compound-treated wells were normalized to that of DMSO control and expressed as percent of control (PoC) (y). A Four Parameter Logistic Model (Sigmoidal Dose-Response Model) was used to determine the compound's DC50, and EC50, using the following equation: y=(A+((B−A)/(1+((C/x)^D)))) • A=YMin (lowest AR level normalized to DMSO control in response to compound treatment, as determined by curve fit) • B=YMax (maximum AR level as determined by curve fit) • C=EC50 • D=Hill Slope • x=compound concentration • EC50=the concentration of compound when y=[…] • DC50=the concentration of the compound when y=50% of DMSO control (50% AR degradation) • y=AR protein level normalized to DMSO control
The lowest measured AR level normalized to DMSO control in response to compound treatment, termed Y value, was used to characterize the compound-mediated AR degradation efficiency.

| SMILES | DC50 [nM] | Y |
| --- | --- | --- |
| Cn1nc(N2CCC(=O)NC2=O)c2cccc(NC(=O)CN3CCN(CCCO[C@H]4CC[C@H](N5C(=S)N(c6cnc(C#N)c(C(F)(F)F)c6)C(=O)C5(C)C)CC4)C[C@@H]3C(F)(F)F)c21 [Cmpd 24, 2-((R)-4-(3-(((trans)-4-(3-(6-cyano-5-(trifluoromethyl)pyridin-3-yl)-5,5-dimethyl-4-oxo-2-thioxoimidazolidin-1-yl)cyclohexyl)oxy)propyl)-2-(trifluoromethyl)piperazin-1-yl)-N-(3-(2,4-dioxotetrahydropyrimidin-1(2H)-yl)-1-methyl-1H-indazol-7-yl)acetamide] | ≤ 2 | * (0<Y≤20%) |
| C[C@@H]1C[C@@H](CCOC2CCC(N3C(=S)N(c4cnc(C#N)c(C(F)(F)F)c4)C(=O)C3(C)C)CC2)C[C@H](C)N1CC(=O)Nc1cccc2c(N3CCC(=O)NC3=O)nn(C)c12 (stereo partly drawn) [Cmpd 25, 2-((2R,4s,6S)-4-(2-(((trans)-4-(3-(6-Cyano-5-(trifluoromethyl)pyridin-3-yl)-5,5-dimethyl-4-oxo-2-thioxoimidazolidin-1-yl)cyclohexyl)oxy)ethyl)-2,6-dimethylpiperidin-1-yl)-N-(3-(2,4-dioxotetrahydropyrimidin-1(2H)-yl)-1-methyl-1H-indazol-7-yl)acetamide] | ≤ 2 | * (0<Y≤20%) |
| Cn1nc(N2CCC(=O)NC2=O)c2cccc(NC(=O)CN3CCN(CCCO[C@H]4CC[C@H](N5C(=S)N(c6ccc(C#N)c(C(F)(F)F)c6)C(=O)C5(C)C)CC4)C[C@@H]3C(F)(F)F)c21 [Cmpd 26, 2-((R)-4-(3-(((trans)-4-(3-(4-Cyano-3-(trifluoromethyl)phenyl)-5,5-dimethyl-4-oxo-2-thioxoimidazolidin-1-yl)cyclohexyl)oxy)propyl)-2-(trifluoromethyl)piperazin-1-yl)-N-(3-(2,4-dioxotetrahydropyrimidin-1(2H)-yl)-1-methyl-1H-indazol-7-yl)acetamide] | 2 to 10 | * (0<Y≤20%) |
| Cn1nc(N2CCC(=O)NC2=O)c2cccc(NC(=O)CN3CCN(CCO[C@H]4CC[C@H](N5C(=S)N(c6cnc(C#N)c(C(F)(F)F)c6)C(=O)C5(C)C)CC4)C[C@@H]3C(F)(F)F)c21 [Cmpd 27, 2-((R)-4-(2-(((trans)-4-(3-(6-Cyano-5-(trifluoromethyl)pyridin-3-yl)-5,5-dimethyl-4-oxo-2-thioxoimidazolidin-1-yl)cyclohexyl)oxy)ethyl)-2-(trifluoromethyl)piperazin-1-yl)-N-(3-(2,4-dioxotetrahydropyrimidin-1(2H)-yl)-1-methyl-1H-indazol-7-yl)acetamide] | ≤ 2 | ** (20%<Y≤%) |
| C[C@@H]1C[C@H](CCO[C@H]2CC[C@H](N3C(=S)N(c4cnc(C#N)c(C(F)(F)F)c4)C(=O)C3(C)C)CC2)C[C@H](C)N1CC(=O)Nc1cccc2c(N3CCC(=O)NC3=O)nn(C)c12 [Cmpd 28, 2-((2R,4r,6S)-4-(2-(((trans)-4-(3-(6-Cyano-5-(trifluoromethyl)pyridin-3-yl)-5,5-dimethyl-4-oxo-2-thioxoimidazolidin-1-yl)cyclohexyl)oxy)ethyl)-2,6-dimethylpiperidin-1-yl)-N-(3-(2,4-dioxotetrahydropyrimidin-1(2H)-yl)-1-methyl-1H-indazol-7-yl)acetamide] | ≤ 2 | * (0<Y≤20%) |
| C[C@@H]1C[C@H](OCCC[C@H]2CC[C@H](N3C(=S)N(c4ccc(C#N)c(C(F)(F)F)c4)C(=O)C3(C)C)CC2)C[C@H](C)N1CC(=O)Nc1cccc2c(N3CCC(=O)NC3=O)nn(C)c12 [Cmpd 29, 2-((2R,4r,6S)-4-(3-((trans)-4-(3-(4-Cyano-3-(trifluoromethyl)phenyl)-5,5-dimethyl-4-oxo-2-thioxoimidazolidin-1-yl)cyclohexyl)propoxy)-2,6-dimethylpiperidin-1-yl)-N-(3-(2,4-dioxotetrahydropyrimidin-1(2H)-yl)-1-methyl-1H-indazol-7-yl)acetamide] | 10 to 100 | * (0<Y≤20%) |
| C[C@@H]1C[C@H](OCCC[C@H]2CC[C@H](N3C(=S)N(c4cnc(C#N)c(C(F)(F)F)c4)C(=O)C3(C)C)CC2)C[C@H](C)N1CC(=O)Nc1cccc2c(N3CCC(=O)NC3=O)nn(C)c12 [Cmpd 30, 2-((2R,4r,6S)-4-(3-((trans)-4-(3-(6-Cyano-5-(trifluoromethyl)pyridin-3-yl)-5,5-dimethyl-4-oxo-2-thioxoimidazolidin-1-yl)cyclohexyl)propoxy)-2,6-dimethylpiperidin-1-yl)-N-(3-(2,4-dioxotetrahydropyrimidin-1(2H)-yl)-1-methyl-1H-indazol-7-yl)acetamide] | 2 to 10 | * (0<Y≤20%) |
| C[C@@H]1C[C@H](OCC[C@H]2CC[C@H](N3C(=S)N(c4ccc(C#N)c(C(F)(F)F)c4)C(=O)C3(C)C)CC2)C[C@H](C)N1CC(=O)Nc1cccc2c(N3CCC(=O)NC3=O)nn(C)c12 [Cmpd 31, 2-((2R,4r,6S)-4-(2-((trans)-4-(3-(4-Cyano-3-(trifluoromethyl)phenyl)-5,5-dimethyl-4-oxo-2-thioxoimidazolidin-1-yl)cyclohexyl)ethoxy)-2,6-dimethylpiperidin-1-yl)-N-(3-(2,4-dioxotetrahydropyrimidin-1(2H)-yl)-1-methyl-1H-indazol-7-yl)acetamide] | 2 to 10 | ** (20%<Y≤%) |
| C[C@@H]1C[C@H](OCC[C@H]2CC[C@H](N3C(=S)N(c4cnc(C#N)c(C(F)(F)F)c4)C(=O)C3(C)C)CC2)C[C@H](C)N1CC(=O)Nc1cccc2c(N3CCC(=O)NC3=O)nn(C)c12 [Cmpd 32, 2-((2R,4r,6S)-4-(2-((trans)-4-(3-(6-Cyano-5-(trifluoromethyl)pyridin-3-yl)-5,5-dimethyl-4-oxo-2-thioxoimidazolidin-1-yl)cyclohexyl)ethoxy)-2,6-dimethylpiperidin-1-yl)-N-(3-(2,4-dioxotetrahydropyrimidin-1(2H)-yl)-1-methyl-1H-indazol-7-yl)acetamide] | 2 to 10 | * (0<Y≤20%) |
| C[C@@H]1C[C@H](OCCO[C@H]2CC[C@H](N3C(=S)N(c4ccc(C#N)c(C(F)(F)F)c4)C(=O)C3(C)C)CC2)C[C@H](C)N1CC(=O)Nc1cccc2c(N3CCC(=O)NC3=O)nn(C)c12 [Cmpd 33, 2-((2R,4r,6S)-4-(2-(((trans)-4-(3-(4-Cyano-3-(trifluoromethyl)phenyl)-5,5-dimethyl-4-oxo-2-thioxoimidazolidin-1-yl)cyclohexyl)oxy)ethoxy)-2,6-dimethylpiperidin-1-yl)-N-(3-(2,4-dioxotetrahydropyrimidin-1(2H)-yl)-1-methyl-1H-indazol-7-yl)acetamide] | 2 to 10 | ** (20%<Y≤%) |
| C[C@@H]1C[C@H](OCCO[C@H]2CC[C@H](N3C(=S)N(c4cnc(C#N)c(C(F)(F)F)c4)C(=O)C3(C)C)CC2)C[C@H](C)N1CC(=O)Nc1cccc2c(N3CCC(=O)NC3=O)nn(C)c12 [Cmpd 34, 2-((2R,4r,6S)-4-(2-(((trans)-4-(3-(6-Cyano-5-(trifluoromethyl)pyridin-3-yl)-5,5-dimethyl-4-oxo-2-thioxoimidazolidin-1-yl)cyclohexyl)oxy)ethoxy)-2,6-dimethylpiperidin-1-yl)-N-(3-(2,4-dioxotetrahydropyrimidin-1(2H)-yl)-1-methyl-1H-indazol-7-yl)acetamide] | ≤ 2 | ** (20%<Y≤%) |
